Literature values, collected in US5932596A, “Imidazoylalkyl substituted with a six membered nitrogen containing nitrogen containing heterocyclic ring” (Schering Corporation, priority 1995, dated 1999).

Tested on: H3 receptors
Conditions: rat brain; Arrang et al.

For `NCCc1c[nH]cn1` [histamine], the “maximal inhibition of release” value is given as “approximately 60%”.
